Data on ten compounds can be found in US9737545B2 (MERCK SHARP & DOHME CORP., priority 2013, dated 2017).

The assay has as its target T1, wildtype HIV-1 protease (Human immunodeficiency virus type 1 group M subtype B, UniProt P04585).
T1 construct: preincubated with the HIV-1 protease (wild type) enzyme in assay buffer; made in house; host or cells: Escherichia coli
Kind of assay: Assay for Inhibition of Microbial Expressed HIV Protease (Pepcleav). The format is biochemical. The procedure:
Assay for Inhibition of Microbial Expressed HIV Protease (“Pepcleav”)
Studies of the inhibition of the wildtype HIV-1 protease (which was expressed in Escherichia coli) were carried out with a peptide substrate [Val-Ser-Gln-Asn-(βnaphthyl)Ala-Pro-Ile-Val (SEQ ID NO: 1)]. The inhibitor was first preincubated with the HIV-1 protease (wild type) enzyme in assay buffer (50 mM sodium acetate, pH 5.5, 100 mM NaCl, and 0.1% BSA) for 30 minutes at room temperature. Substrate was added to 400 micromolar in a total volume of 20 microliters containing 20 picomolar HIV-1 protease (final) and the reaction was incubated for 1 hour at 30° C. The reaction was quenched with the addition of formic acid and indinavir to 0.012% and 150 nM final concentrations, respectively. The product formation was determined after separation of product and substrate on a Zorbax Eclipse XDB-C18 column connected to an API 4000 mass spectrometer (Applied Biosystems) with multiple reaction monitoring (transitions were 644.5/428.9 and 615.4/422.2 (M1/M3) for product and indinavir respectively). The extent of inhibition of the reaction was determined from the peak area of the products. Analysis of the products, independently synthesized, provided quantitation standards and confirmation of the product composition.

With `COC(=O)N[C@H](C(=O)Nc1ccccc1CC[C@@H]1CN[C@H](c2nc3ccccc3[nH]2)CO1)C(c1ccccc1)c1ccccc1` [Example 1, N-(2-{2-[(2R,5R)-5-(1H-benzimidazol-2-yl)morpholin-2-yl]ethyl}phenyl)-Nα-(methoxycarbonyl)-β-phenyl-L-phenylalaninamide], the IC50 was 37.4 pM. This lies in the picomolar range.
In turn, `COC(=O)N[C@H](C(=O)Nc1ccccc1CC[C@@H]1CN[C@H](c2nc3ccccc3n2C)CO1)C(c1ccccc1)c1ccccc1` [Example 2, methyl N-[(1S)-1-benzhydryl-2-[[2-[2-[(2R,5R)-5-(1-methylbenzimidazol-2-yl)morpholin-2-yl]ethyl]phenyl]amino]-2-oxo-ethyl]carbamate] yielded a half-inhibitory concentration (IC50) of 7960 pM.
The compound `COC(=O)N[C@H](C(=O)Nc1ccccc1CC[C@@H]1CN[C@H](c2nc3cccc(C)c3[nH]2)CO1)C(c1ccccc1)c1ccccc1` [Example 3, methyl N-[(1S)-1-benzhydryl-2-[[2-[2-[(2R,5R)-5-(7-methyl-1H-benzimidazol-2-yl)morpholin-2-yl]ethyl]phenyl]amino]-2-oxo-ethyl]carbamate] registered an IC50 of 63.9 pM. This IC50 lies about 120-fold lower than the previous one.
`COC(=O)N[C@H](C(=O)Nc1ccccc1CC[C@@H]1CN[C@H](c2nc3ccc(C)cc3[nH]2)CO1)C(c1ccccc1)c1ccccc1` [Example 4, methyl N-[(1S)-1-benzhydryl-2-[[2-[2-[(2R,5R)-5-(6-methyl-1H-benzimidazol-2-yl)morpholin-2-yl]ethyl]phenyl]amino]-2-oxo-ethyl]carbamate] registered a 50% inhibitory concentration (IC50) of 92.3 pM.
Under `COC(=O)N[C@H](C(=O)Nc1ccccc1CC[C@@H]1CN[C@H](c2nc3ccncc3[nH]2)CO1)C(c1ccccc1)c1ccccc1` [Example 5, methyl N-[(1S)-1-benzhydryl-2-[[2-[2-[(2R,5R)-5-(3H-imidazo[4,5-c]pyridin-2-yl)morpholin-2-yl]ethyl]phenyl]amino]-2-oxo-ethyl]carbamate] stands 7410 pM; under `COC(=O)N[C@H](C(=O)Nc1ccccc1CC[C@@H]1CN[C@H](c2nc3ccc(OC)cc3[nH]2)CO1)C(c1ccccc1)c1ccccc1` [Example 6, methyl N-[(1S)-1-benzhydryl-2-[[2-[2-[(2R,5R)-5-(6-methoxy-1H-benzimidazol-2-yl)morpholin-2-yl]ethyl]phenyl]amino]-2-oxo-ethyl]carbamate], 334 pM; under `COC(=O)N[C@H](C(=O)Nc1ccccc1CC[C@@H]1CN[C@H](c2nc3ccc(S(C)(=O)=O)cc3[nH]2)CO1)C(c1ccccc1)c1ccccc1` [Example 7, methyl N-[(1S)-1-benzhydryl-2-[[2-[2-[(2R,5R)-5-(6-methylsulfonyl-1H-benzimidazol-2-yl)morpholin-2-yl]ethyl]phenyl]amino]-2-oxo-ethyl]carbamate], 37100 pM.
Under `COC(=O)N[C@H](C(=O)Nc1ccccc1CC[C@@H]1CN[C@H](c2nc3ccc(C(F)(F)F)cc3[nH]2)CO1)C(c1ccccc1)c1ccccc1` [Example 8, methyl N-[(1S)-1-benzhydryl-2-oxo-2-[[2-[2-[(2R,5R)-5-[6-(trifluoromethyl)-1H-benzimidazol-2-yl]morpholin-2-yl]ethyl]phenyl]amino]ethyl]carbamate] stands 504 pM; under `COC(=O)N[C@H](C(=O)Nc1ccccc1CC[C@@H]1CN[C@H](c2nc3cc(C)c(C)cc3[nH]2)CO1)C(c1ccccc1)c1ccccc1` [Example 9, methyl N-[(1S)-1-benzhydryl-2-[[2-[2-[(2R,5R)-5-(5,6-dimethyl-1H-benzimidazol-2-yl)morpholin-2-yl]ethyl]phenyl]amino]-2-oxo-ethyl]carbamate], 51.6 pM.
Regarding `COC(=O)N[C@H](C(=O)Nc1ccccc1CC[C@@H]1CN[C@H](c2nc3ccc(C#N)cc3[nH]2)CO1)C(c1ccccc1)c1ccccc1` [Example 10, methyl N-[(1S)-1-benzhydryl-2-[[2-[2-[(2R,5R)-5-(6-cyano-1H-benzimidazol-2-yl)morpholin-2-yl]ethyl]phenyl]amino]-2-oxo-ethyl]carbamate], the IC50 worked out at 1590 pM. Compared with the last compound, the IC50 is about 31-fold higher.

The IC50 is the point on the concentration scale where inhibition reaches its midpoint. The low end stands for inhibition by little substance, the high end for a need for much substance.
